What was measured:
FLS = FLS invasion, focused library screen (Table 1); assay type: cell-based; details: evaluated over 24 hours in vitro
Procedure: The in vitro invasiveness of FLS was assayed in a transwell system using Matrigel-coated inserts (BD Biosciences, Franklin Lakes, N.J.), as previously described (Tolboom et al., “Invasiveness of Fibroblast-Like Synoviocytes is an Individual Patient Characteristic Associated with the Rate of Joint Destruction in Patients with Rheumatoid Arthritis,” Arthritis Rheum. 52 (7):1999-2002 (2005); Laragione et al., “The Arthritis Severity Locus Cia5d is a Novel Genetic Regulator of the Invasive Properties of Synovial Fibroblasts,” Arthritis Rheum. 58 (8):2296-2306 (2008), which are hereby incorporated by reference in their entirety). Briefly, 70-80% confluent cells were harvested by trypsin-EDTA digestion, and re-suspended at 2.0×10^4 cells in 500 μl of serum-free DMEM. Cells were placed in the upper compartment of the Matrigel-coated inserts. Where indicated, O1821, LER13, or vehicle was added to the upper chamber. The lower compartment was filled with complete media and the plates were incubated at 37° C. for 24 hours. After 24 hours the upper surface of the insert was wiped with cotton-swabs to remove non-invading cells and the Matrigel layer. The opposite side of the insert was stained with Crystal Violet (Sigma) and the total number of cells that invaded through Matrigel counted at 100× magnification. Experiments were done in duplicate.

[1] = tested on: C57BL/6 mice with KRN serum transfer-induced arthritis; test: KRN serum transfer induced arthritis (clinical scores and histology); assay type: in vivo, mouse; details: KRN serum induced arthritis
Procedure: Seven to eight week-old C57BL/6 male mice (Jackson Laboratories) received 200 μl of KRN arthritogenic serum (Ji et al, “Genetic Influences on the End-Stage Effector Phase of Arthritis,” J. Exp. Med. 194 (3):321-330 (2001), which is hereby incorporated by reference in its entirety) (KBN TCR transgenic mice were a kind gift from Christophe Benoist and have been intercrossed with NOD at the Feinstein Institute to generate KRN mice and the arthritogenic serum) intraperitoneal (IP) on day zero (D0) and day 2 (D2). After the onset of clear ankle arthritis (day 3; D3), mice were started on O1821 10 mg/Kg IP BID or control vehicle (DMSO in saline solution). Arthritis severity was scored according to the system reported by Jirholt et al., “Genetic Linkage Analysis of Collagen-Induced Arthritis in the Mouse,” Eur. J. Immunol. 28 (10):3321-3328 (1998), which is hereby incorporated by reference in its entirety, which includes a number of involved joints and a degree of inflammation (swelling/redness) in a scale of 0-12 per mouse per day.
[…] Histology slides were scored without knowledge of treatment and according to a comprehensive scoring system previously reported that includes parameters for synovial hyperplasia, inflammatory cell infiltration, and bone and cartilage erosions (Brenner et al., “The Non-MHC Quantitative Trait Locus Cia10 Contains a Major Arthritis Gene and Regulates Disease Severity, Pannus Formation and Joint Damage,” Arthritis Rheum. 52 (1):322-332 (2005), which is hereby incorporated by reference in its entirety).

Trpv2 = target: T1, Trpv2 (Rattus norvegicus, UniProt Q9WUD2); test: Intracellular calcium influx (Fluo-4 NW) in DA FLS; assay type: cell-based; design: endogenous in cells; host or cells: fibroblast-like synoviocytes (FLS) from DA rats; details: measured over 200 seconds; compared with O1821
T1 sequence (Q9WUD2 1-761): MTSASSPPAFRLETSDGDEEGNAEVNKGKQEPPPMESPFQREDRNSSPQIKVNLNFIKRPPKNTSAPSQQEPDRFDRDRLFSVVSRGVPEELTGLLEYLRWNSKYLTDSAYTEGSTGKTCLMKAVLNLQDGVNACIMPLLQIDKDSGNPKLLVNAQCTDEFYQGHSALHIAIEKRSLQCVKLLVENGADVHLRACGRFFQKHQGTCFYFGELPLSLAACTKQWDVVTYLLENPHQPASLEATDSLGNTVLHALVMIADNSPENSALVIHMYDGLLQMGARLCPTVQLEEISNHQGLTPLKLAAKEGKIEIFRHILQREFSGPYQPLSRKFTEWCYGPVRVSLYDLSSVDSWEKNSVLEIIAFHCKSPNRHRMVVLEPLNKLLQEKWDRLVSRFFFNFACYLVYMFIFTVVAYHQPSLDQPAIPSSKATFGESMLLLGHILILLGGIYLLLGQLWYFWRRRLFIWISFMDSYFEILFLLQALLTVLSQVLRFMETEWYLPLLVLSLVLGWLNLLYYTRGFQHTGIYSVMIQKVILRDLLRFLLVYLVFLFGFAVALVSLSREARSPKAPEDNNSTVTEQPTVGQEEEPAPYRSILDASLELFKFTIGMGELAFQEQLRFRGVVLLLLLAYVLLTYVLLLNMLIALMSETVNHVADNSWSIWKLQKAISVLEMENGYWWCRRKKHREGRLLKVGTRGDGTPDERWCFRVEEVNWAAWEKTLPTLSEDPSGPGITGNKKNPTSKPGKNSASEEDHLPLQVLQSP
Procedure: Intracellular calcium influx was measured using the Fluo-4 NW calcium assay kit (Molecular Probes/Invitrogen) according to the manufacturer's instructions, as previously described (Laragione et al., “CXCL10 and its Receptor CXCR3 Regulate Synovial Fibroblast Invasion in Rheumatoid Arthritis,” Arthritis Rheum. 63 (11):3274-3283 (2011), which is hereby incorporated by reference in its entirety). Briefly, DA FLS were plated at a density of 4,500 cells/well in a 96-well plate (100 μl volume of complete media per well). After cell adhesion the media was changed to serum-free media for overnight culture. Serum-free media was then replaced with 50 μl of dye loading solution, followed by incubation at 37° C. for 30 minutes and a baseline fluorimetric reading. Then, O1821, LER13, or vehicle were added to their respective wells at different concentrations and fluorescence read immediately in a Fluoroskan Ascent Microplate Fluorometer (Thermo Scientific) with settings appropriate for excitation at 494 nm and emission at 516 nm.

[2] = tested on: DBA1/J mice with collagen-induced arthritis; test: Collagen induced arthritis (CIA); assay type: in vivo, mouse; details: for Arthritis severity (CIA): collagen-induced arthritis
Text: CIA was induced in 8-week-old male DBA1/J mice (Jackson Laboratories) using a standard protocol (Courtenay et al., “Immunisation Against Heterologous Type II Collagen Induces Arthritis in Mice,” Nature 283 (5748):666-668 (1980); Nagler-Anderson et al., “Suppression of Type II Collagen-Induced Arthritis by Intragastric Administration of Soluble Type II Collagen,” Proc. Natl. Acad. Sci. U.S.A. 83 (19):7443-7446 (1986), which are hereby incorporated by reference in their entirety). Briefly, bovine type II collagen (Chondrex, Redmond, Wash.) was dissolved overnight in acetic acid 0.1 N and then homogenized at 1:1 with Complete Freund's Adjuvant (CFA, Difco, Detroit, Mich.). Anesthetized mice were injected intradermally with 100 μg of type II collagen emulsified in CFA in the tail. The new Trpv2 agonist LER13 (10 mg/Kg) or control vehicle (PBS 50%, PEG300 40%, PG 5%, PS80 5%) was started on day 10 (D10) and administered intra-peritoneally every-other-day (from D10 until day 55). On day 21 (D21), mice received a booster injection of 100 μg of type II collagen in incomplete Freund's adjuvant. Clinical signs of arthritis were evident on day 24 (D24).
Arthritis severity in CIA mice was scored using a modified scoring system based on Jirholt et al., “Genetic Linkage Analysis of Collagen-Induced Arthritis in the Mouse,” Eur. J. Immunol. 28 (10):3321-3328 (1998), which is hereby incorporated by reference in its entirety. Briefly, the modified scoring system ranged from 0-16 per mouse per day and included a functional component of disease severity (non-weight bearing) in the maximum score of 4 per paw. The arthritis severity index (ASI), which is the sum of all scores obtained during the observation period, was used to compare treatment groups as it provides a comprehensive assessment of arthritis severity over time, and correlates with histologic damage (Brenner et al., “The Non-MHC Quantitative Trait Locus Cia10 Contains a Major Arthritis Gene and Regulates Disease Severity, Pannus Formation and Joint Damage,” Arthritis Rheum. 52 (1):322-332 (2005); Brenner et al., “The Non-MHC Quantitative Trait Locus Cia5 Contains Three Major Arthritis Genes that Differentially Regulate Disease Severity, Pannus Formation, and Joint Damage in Collagen- and Pristane-Induced Arthritis,” J. Immunol. 174 (12):7894-7903 (2005), which are hereby incorporated by reference in their entirety).

C=C(C)[C@@H]1CCC(C)=C[C@H]1c1c(O)cc(C)cc1O [Compound 1]
FLS invasion decreased by (FLS): Decreased by 30%
Arthritis severity (KRN) [1]: Protective KRN
Calcium influx (Trpv2): increased

C=C(C)[C@@H]1CCC(C)=C[C@H]1c1c(C)cc(O)cc1O [Compound 2]
Calcium influx (Trpv2): increased (like DMSO, but less than O1821)

C=C(C)[C@H]1CCC(C)=CC1c1c(O)c(C2C=C(C)CC[C@H]2C(=C)C)c(O)c([C@@H]2C=C(C)CC[C@H]2C(=C)C)c1O (some centres unmarked) [Compound 3]
Calcium influx (Trpv2): increased (20% greater than O1821)

C=C(C)[C@H]1CCC(C)=CC1c1c(O)cc(O)c([C@@H]2C=C(C)CC[C@H]2C(=C)C)c1O (some centres unmarked) [Compound 4]
Calcium influx (Trpv2): increased (25% less than O1821)

C=C(C)[C@@H]1CCC(C)=C[C@H]1c1c(O)cc(O)cc1O [Compound 5]
Calcium influx (Trpv2): increased (25% less than O1821)

C=C(C)[C@H]1CCC(C)=CC1c1c(/C=C/c2ccc(O)cc2)cc(O)c([C@@H]2C=C(C)CC[C@H]2C(=C)C)c1O (some centres unmarked) [Compound 6]
Calcium influx (Trpv2): increased (similar to O1821)

C=C(C)[C@@H]1CCC(C)=C[C@H]1c1c(O)cc(/C=C/c2ccc(O)cc2)cc1O [Compound 7]
Calcium influx (Trpv2): increased (50% less than O1821)

C=C(C)[C@H]1CCC(C)=CC1c1c(O)cc(O)cc1/C=C/c1ccc(O)cc1 (some centres unmarked) [Compound 8]
Calcium influx (Trpv2): increased (10% less than O1821)

C=C(C)[C@@H]1CCC(C)=CC1c1c(O)cc(F)cc1O (some centres unmarked) [Compound 9]
Calcium influx (Trpv2): increased (similar to O1821)

C=C(C)[C@@H]1CCC(C)=CC1c1c(O)cc(O)cc1F (some centres unmarked) [Compound 10]
FLS invasion decreased by (FLS): Decreased by 100%
Arthritis severity (KRN) [1]: Not protective KRN and CIA
Arthritis severity (CIA) [2]: Not protective KRN and CIA
Calcium influx (Trpv2): increased (20% greater than O1821)

C=C(C)[C@@H]1CCC(C)=CC1c1c(O)cc(O)cc1Cl (some centres unmarked) [Compound 11]
Calcium influx (Trpv2): increased (20% greater than O1821)

C=C(C)[C@@H]1CCC(C)=CC1c1c(O)cc(Cl)cc1O (some centres unmarked) [Compound 12]
FLS invasion decreased by (FLS): Decreased by 100%
Arthritis severity (CIA) [2]: Not protective in CIA
Calcium influx (Trpv2): increased (20% greater than O1821)

C#Cc1cc(O)cc(O)c1C1C=C(C)CC[C@H]1C(=C)C (some centres unmarked) [Compound 14]
FLS invasion decreased by (FLS): Decreased by 100%
Arthritis severity (KRN) [1]: Not protective in KRN
Calcium influx (Trpv2): increased (20% greater than O1821)

(1R,2″R,2R,2″S)-6′-ethynyl-5,5″-dimethyl-2,2″-di(prop-1-en-2-yl)-1,1″,2,2″,3,3″,4,4″-octahydro-[1,1′:3′,1″-terphenyl]-2′,4′-diol [Compound 13]
Arthritis severity index (ASI), mean±S.D. ([2]; 10 mg/Kg IP every-other-day from D10, scoring to D76): 40.7±36.8
